Source: ChEMBL document CHEMBL4387741, “Optimization of novel reversible Bruton's tyrosine kinase inhibitors identified using Tethering-fragment-based screens” (Bioorg Med Chem, 2019)

Columns and labels:
[1] = molecular target: Wee1-like protein kinase 2 (Homo sapiens) (UniProt P0C1S8); assay: Inhibition of wild-type human partial length WEE2 (M204 to K492 residues) expressed in bacterial expression system at 1 uM by Kinomescan method relative to control
[2] = molecular target: BDNF/NT-3 growth factors receptor (Homo sapiens) (UniProt Q16620); assay: Inhibition of wild-type human partial length TRKB (Q547 to G838 residues) expressed in mammalian expression system at 1 uM by Kinomescan method relative to control
[3] = system: Mast/stem cell growth factor receptor Kit (Homo sapiens), P10721 [V559D]; assay: Inhibition of human partial length KIT V559D mutant (Y545 to D952 residues) expressed in bacterial expression system at 1 uM by Kinomescan method relative to control
Mast/stem cell growth factor receptor Kit (Homo sapiens), P10721 [V559D], sequence (P10721 whole entry V559D, the tested form may be a part): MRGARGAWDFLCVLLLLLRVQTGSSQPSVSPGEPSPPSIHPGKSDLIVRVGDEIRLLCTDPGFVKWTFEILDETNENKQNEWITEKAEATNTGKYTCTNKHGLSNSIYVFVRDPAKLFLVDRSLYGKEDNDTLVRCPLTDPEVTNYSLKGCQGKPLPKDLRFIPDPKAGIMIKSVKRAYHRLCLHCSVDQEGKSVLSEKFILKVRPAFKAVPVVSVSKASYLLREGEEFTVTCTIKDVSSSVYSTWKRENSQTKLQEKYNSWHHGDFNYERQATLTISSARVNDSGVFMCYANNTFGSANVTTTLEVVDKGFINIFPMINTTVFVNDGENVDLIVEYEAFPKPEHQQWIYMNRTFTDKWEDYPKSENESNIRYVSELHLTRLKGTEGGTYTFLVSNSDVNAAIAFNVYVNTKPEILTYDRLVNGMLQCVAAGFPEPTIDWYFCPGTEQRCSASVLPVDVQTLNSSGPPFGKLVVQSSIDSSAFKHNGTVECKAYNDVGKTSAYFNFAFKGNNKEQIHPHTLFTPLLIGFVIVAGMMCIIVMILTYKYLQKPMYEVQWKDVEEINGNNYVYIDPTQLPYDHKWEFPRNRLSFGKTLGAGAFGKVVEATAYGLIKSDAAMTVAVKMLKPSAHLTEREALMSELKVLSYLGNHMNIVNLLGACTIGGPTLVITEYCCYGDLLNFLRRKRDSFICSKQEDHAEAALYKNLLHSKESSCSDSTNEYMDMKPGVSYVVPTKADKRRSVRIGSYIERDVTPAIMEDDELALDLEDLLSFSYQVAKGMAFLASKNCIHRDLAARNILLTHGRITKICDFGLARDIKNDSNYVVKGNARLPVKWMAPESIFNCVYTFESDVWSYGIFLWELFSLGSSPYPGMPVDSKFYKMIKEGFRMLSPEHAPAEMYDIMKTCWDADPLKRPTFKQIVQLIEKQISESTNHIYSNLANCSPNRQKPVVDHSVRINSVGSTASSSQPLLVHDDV

[4] = molecular target: Interferon-induced, double-stranded RNA-activated protein kinase (Homo sapiens) (UniProt P19525); assay: Inhibition of wild-type human partial length PRKR (F247 to C551 residues) expressed in bacterial expression system at 1 uM by Kinomescan method relative to control
[5] = molecular target: Ankyrin repeat and protein kinase domain-containing protein 1 (Homo sapiens) (UniProt Q8NFD2); assay: Inhibition of wild-type human partial length ANKK1 (M1 to A305 residues) expressed in mammalian expression system at 1 uM by Kinomescan method relative to control
[6] = molecular target: Receptor tyrosine-protein kinase erbB-3 (Homo sapiens) (UniProt P21860); assay: Inhibition of wild-type human partial length ERBB3 (G684 to A987 residues) expressed in mammalian expression system at 1 uM by Kinomescan method relative to control
Receptor tyrosine-protein kinase erbB-3 (Homo sapiens), sequence (P21860 whole entry, the tested form may be a part): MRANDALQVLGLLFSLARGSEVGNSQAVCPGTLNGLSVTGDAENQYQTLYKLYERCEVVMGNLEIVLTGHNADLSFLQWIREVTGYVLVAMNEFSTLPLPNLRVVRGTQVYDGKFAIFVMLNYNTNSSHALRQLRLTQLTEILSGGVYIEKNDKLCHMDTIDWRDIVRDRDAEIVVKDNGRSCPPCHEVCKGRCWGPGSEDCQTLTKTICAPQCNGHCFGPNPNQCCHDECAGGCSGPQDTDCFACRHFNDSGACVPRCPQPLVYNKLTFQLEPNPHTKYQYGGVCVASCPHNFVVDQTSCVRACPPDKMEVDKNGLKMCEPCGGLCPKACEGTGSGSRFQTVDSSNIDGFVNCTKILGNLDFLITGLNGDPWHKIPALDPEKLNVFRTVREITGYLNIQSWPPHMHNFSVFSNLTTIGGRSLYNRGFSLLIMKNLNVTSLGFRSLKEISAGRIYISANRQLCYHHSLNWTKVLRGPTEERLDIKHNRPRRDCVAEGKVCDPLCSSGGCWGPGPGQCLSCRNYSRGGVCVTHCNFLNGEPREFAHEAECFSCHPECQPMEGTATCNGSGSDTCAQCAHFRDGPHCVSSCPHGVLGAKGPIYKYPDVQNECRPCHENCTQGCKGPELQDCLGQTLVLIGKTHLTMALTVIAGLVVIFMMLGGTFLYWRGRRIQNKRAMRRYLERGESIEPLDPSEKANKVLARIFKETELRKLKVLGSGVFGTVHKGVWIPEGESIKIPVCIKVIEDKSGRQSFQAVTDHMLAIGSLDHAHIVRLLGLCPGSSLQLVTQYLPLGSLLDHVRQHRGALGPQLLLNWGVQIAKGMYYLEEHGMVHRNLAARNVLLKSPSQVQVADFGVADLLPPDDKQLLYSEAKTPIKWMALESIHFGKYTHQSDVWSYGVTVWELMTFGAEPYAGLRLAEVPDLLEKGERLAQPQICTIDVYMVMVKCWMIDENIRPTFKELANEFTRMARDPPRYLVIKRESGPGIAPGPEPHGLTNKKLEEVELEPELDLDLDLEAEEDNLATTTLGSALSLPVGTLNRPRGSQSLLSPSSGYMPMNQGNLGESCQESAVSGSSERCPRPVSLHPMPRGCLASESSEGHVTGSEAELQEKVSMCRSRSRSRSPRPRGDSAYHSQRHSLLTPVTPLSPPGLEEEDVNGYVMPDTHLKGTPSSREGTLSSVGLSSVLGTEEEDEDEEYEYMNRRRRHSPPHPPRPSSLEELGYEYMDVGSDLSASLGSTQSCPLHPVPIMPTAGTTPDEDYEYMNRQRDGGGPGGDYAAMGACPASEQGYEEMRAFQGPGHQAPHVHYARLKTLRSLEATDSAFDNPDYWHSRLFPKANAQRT

[7] = molecular target: Serine/threonine-protein kinase VRK2 (Homo sapiens) (UniProt Q86Y07); assay: Inhibition of wild-type human partial length VRK2 (M1 to T336 residues) expressed in mammalian expression system at 1 uM by Kinomescan method relative to control
[8] = molecular target: Ephrin type-A receptor 8 (Homo sapiens) (UniProt P29322); assay: Inhibition of wild-type human partial length EPHA8 (Q608 to C920 residues) expressed in bacterial expression system at 1 uM by Kinomescan method relative to control
[9] = molecular target: Mitogen-activated protein kinase 3 (Homo sapiens) (UniProt P27361); assay: Inhibition of wild-type human full length ERK1 (M1 to P379 residues) expressed in bacterial expression system at 1 uM by Kinomescan method relative to control
[10] = molecular target: MAP/microtubule affinity-regulating kinase 3 (Homo sapiens) (UniProt P27448); assay: Inhibition of wild-type human full length MARK3 (M1 to L729 residues) expressed in bacterial expression system at 1 uM by Kinomescan method relative to control
[11] = molecular target: Ribosomal protein S6 kinase alpha-6 (Homo sapiens) (UniProt Q9UK32); assay: Inhibition of wild-type human partial length N-terminal RSK4 kinase domain 1 (M1 to E397 residues) expressed in mammalian expression system at 1 uM by Kinomescan method relative to control
[12] = molecular target: Serine/threonine-protein kinase LATS1 (Homo sapiens) (UniProt O95835); assay: Inhibition of wild-type human partial length LATS1 (Q678 to V1130 residues) expressed in bacterial expression system at 1 uM by Kinomescan method relative to control
[13] = system: Receptor-type tyrosine-protein kinase FLT3 (Homo sapiens), P36888 [D835V]; assay: Inhibition of human partial length FLT3 D835V mutant (V592 to Y969 residues) expressed in bacterial expression system at 1 uM by Kinomescan method relative to control
[14] = molecular target: Serine/threonine-protein kinase WNK4 (Homo sapiens) (UniProt Q96J92); assay: Inhibition of wild-type human partial length WNK4 (A31 to D461 residues) expressed in mammalian expression system at 1 uM by Kinomescan method relative to control
[15] = molecular target: Activated CDC42 kinase 1 (Homo sapiens) (UniProt Q07912); assay: Inhibition of wild-type human partial length TNK2 (S159 to D474 residues) expressed in bacterial expression system at 1 uM by Kinomescan method relative to control
[16] = system: Receptor-type tyrosine-protein kinase FLT3 (Homo sapiens), P36888 [N841I]; assay: Inhibition of human partial length FLT3 N841I mutant (V592 to Y969 residues) expressed in bacterial expression system at 1 uM by Kinomescan method relative to control
[17] = molecular target: Serine/threonine-protein kinase Nek3 (Homo sapiens) (UniProt P51956); assay: Inhibition of wild-type human full length NEK3 (M1 to R506 residues) expressed in mammalian expression system at 10 uM by Kinomescan method relative to control
[18] = system: Epidermal growth factor receptor (Homo sapiens), P00533 [G719S]; assay: Inhibition of human partial length EGFR G719S mutant (R669 to V1011 residues) expressed in bacterial expression system at 10 uM by Kinomescan method relative to control
[19] = system: Receptor-type tyrosine-protein kinase FLT3 (Homo sapiens), P36888 [UNDEFINED MUTATION]; assay: Inhibition of human partial length FLT3 ITD/F691L double mutant expressed in bacterial expression system at 10 uM by Kinomescan method relative to control
[20] = molecular target: Platelet-derived growth factor receptor beta (Homo sapiens) (UniProt P09619); assay: Inhibition of wild-type human partial length PDGFRB (V582 to Y1009 residues) expressed in bacterial expression system at 10 uM by Kinomescan method relative to control
Platelet-derived growth factor receptor beta (Homo sapiens), sequence (P09619 whole entry, the tested form may be a part): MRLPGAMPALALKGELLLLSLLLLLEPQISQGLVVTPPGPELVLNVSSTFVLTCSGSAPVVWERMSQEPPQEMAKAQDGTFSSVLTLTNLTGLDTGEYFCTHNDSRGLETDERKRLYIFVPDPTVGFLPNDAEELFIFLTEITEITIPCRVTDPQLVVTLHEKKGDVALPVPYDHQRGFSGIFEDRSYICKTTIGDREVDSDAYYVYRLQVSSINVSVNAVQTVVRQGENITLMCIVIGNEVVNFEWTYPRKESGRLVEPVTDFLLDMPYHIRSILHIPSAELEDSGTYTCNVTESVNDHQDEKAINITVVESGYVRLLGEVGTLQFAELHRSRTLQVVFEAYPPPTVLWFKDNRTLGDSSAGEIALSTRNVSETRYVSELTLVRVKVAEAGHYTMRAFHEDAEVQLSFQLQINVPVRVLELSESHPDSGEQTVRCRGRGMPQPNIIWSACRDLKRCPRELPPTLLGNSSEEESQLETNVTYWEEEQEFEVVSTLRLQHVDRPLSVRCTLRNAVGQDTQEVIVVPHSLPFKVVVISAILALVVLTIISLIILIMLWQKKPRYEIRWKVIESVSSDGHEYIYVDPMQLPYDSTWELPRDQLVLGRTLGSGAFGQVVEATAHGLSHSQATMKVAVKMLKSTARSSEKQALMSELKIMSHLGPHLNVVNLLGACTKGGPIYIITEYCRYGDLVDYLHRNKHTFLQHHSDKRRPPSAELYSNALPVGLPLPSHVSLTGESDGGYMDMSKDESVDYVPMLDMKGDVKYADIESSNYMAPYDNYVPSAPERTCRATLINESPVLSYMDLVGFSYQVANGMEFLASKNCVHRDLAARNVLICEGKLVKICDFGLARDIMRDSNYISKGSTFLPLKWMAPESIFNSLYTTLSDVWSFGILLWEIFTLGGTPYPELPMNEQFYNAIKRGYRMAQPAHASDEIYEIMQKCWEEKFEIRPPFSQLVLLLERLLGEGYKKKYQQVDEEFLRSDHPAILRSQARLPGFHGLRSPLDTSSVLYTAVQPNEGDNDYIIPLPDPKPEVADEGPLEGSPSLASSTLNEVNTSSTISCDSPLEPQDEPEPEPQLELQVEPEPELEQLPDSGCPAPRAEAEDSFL

[21] = molecular target: MAP kinase-activated protein kinase 2 (Homo sapiens) (UniProt P49137); assay: Inhibition of wild-type human partial length MAPKAPK2 (V48 to D345 residues) expressed in bacterial expression system at 10 uM by Kinomescan method relative to control
MAP kinase-activated protein kinase 2 (Homo sapiens), sequence (P49137 whole entry, looked up, the tested form may be a part): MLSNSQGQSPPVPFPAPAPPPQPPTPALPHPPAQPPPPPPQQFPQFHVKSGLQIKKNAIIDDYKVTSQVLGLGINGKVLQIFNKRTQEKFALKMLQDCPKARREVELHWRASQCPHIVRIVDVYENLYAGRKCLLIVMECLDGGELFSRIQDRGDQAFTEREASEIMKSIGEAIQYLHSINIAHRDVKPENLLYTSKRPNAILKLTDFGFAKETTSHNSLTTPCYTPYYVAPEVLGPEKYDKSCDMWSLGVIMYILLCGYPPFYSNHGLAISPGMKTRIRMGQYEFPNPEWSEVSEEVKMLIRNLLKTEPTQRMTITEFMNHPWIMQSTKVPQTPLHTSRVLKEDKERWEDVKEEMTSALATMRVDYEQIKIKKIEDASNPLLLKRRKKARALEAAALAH

[22] = molecular target: Receptor tyrosine-protein kinase erbB-3 (Homo sapiens) (UniProt P21860); assay: Inhibition of wild-type human partial length ERBB3 (G684 to A987 residues) expressed in mammalian expression system at 10 uM by Kinomescan method relative to control
[23] = molecular target: Ephrin type-A receptor 2 (Homo sapiens) (UniProt P29317); assay: Inhibition of wild-type human partial length EPHA2 (T593 to V891 residues) expressed in bacterial expression system at 10 uM by Kinomescan method relative to control
[24] = molecular target: Ribosomal protein S6 kinase alpha-2 (Homo sapiens) (UniProt Q15349); assay: Inhibition of wild-type human partial length C-terminal RSK3 kinase domain 2 (V403 to K700 residues) expressed in bacterial expression system at 10 uM by Kinomescan method relative to control
[25] = molecular target: Serine/threonine-protein kinase WNK3 (Homo sapiens) (UniProt Q9BYP7); assay: Inhibition of wild-type human partial length WNK3 (M1 to D434 residues) expressed in mammalian expression system at 10 uM by Kinomescan method relative to control
[26] = molecular target: Serine/threonine-protein kinase LATS2 (Homo sapiens) (UniProt Q9NRM7); assay: Inhibition of wild-type human partial length LATS2 (Q641 to V1088 residues) expressed in mammalian expression system at 10 uM by Kinomescan method relative to control
Serine/threonine-protein kinase LATS2 (Homo sapiens), sequence (Q9NRM7 whole entry, the tested form may be a part): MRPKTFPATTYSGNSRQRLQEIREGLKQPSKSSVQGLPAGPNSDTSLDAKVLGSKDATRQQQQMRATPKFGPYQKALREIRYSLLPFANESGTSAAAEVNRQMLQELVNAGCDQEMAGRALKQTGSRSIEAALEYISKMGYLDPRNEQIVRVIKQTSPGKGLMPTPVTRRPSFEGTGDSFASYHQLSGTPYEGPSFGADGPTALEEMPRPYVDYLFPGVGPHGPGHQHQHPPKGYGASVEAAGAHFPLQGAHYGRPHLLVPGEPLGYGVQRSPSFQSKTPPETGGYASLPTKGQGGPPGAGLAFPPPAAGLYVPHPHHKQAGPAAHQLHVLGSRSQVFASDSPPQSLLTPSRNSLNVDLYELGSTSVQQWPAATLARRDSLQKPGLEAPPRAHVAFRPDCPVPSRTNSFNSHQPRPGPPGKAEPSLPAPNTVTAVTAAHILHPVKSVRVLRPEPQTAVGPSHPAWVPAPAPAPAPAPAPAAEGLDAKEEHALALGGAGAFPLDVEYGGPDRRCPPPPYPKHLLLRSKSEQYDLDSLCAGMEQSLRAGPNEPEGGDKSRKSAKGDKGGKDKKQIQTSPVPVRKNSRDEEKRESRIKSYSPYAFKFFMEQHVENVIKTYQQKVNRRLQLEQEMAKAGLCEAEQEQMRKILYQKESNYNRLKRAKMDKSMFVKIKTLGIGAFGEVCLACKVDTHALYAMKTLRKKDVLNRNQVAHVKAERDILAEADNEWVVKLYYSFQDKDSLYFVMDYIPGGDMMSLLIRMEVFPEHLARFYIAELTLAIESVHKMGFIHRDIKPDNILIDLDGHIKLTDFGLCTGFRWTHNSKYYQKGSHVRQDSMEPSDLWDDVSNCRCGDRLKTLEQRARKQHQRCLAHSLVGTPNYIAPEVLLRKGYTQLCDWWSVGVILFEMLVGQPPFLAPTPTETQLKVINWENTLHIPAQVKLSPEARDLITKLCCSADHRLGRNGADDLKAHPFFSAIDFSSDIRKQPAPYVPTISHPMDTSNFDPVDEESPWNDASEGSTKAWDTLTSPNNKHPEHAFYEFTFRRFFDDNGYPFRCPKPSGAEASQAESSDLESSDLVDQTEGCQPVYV

[27] = molecular target: Tyrosine-protein kinase receptor UFO (Homo sapiens) (UniProt P30530); assay: Inhibition of wild-type human partial length AXL (R497 to Y821 residues) expressed in bacterial expression system at 10 uM by Kinomescan method relative to control

Work on `O=C(Nc1cccc([C@@H]2CN(c3ncnc4[nH]ccc34)CCN2CCO)c1)Nc1c(F)cccc1N1CCCC1` yielded an inhibition [1] of 93%, an inhibition [2] of 100% and an inhibition [3] of 40%. It also gave an inhibition [4] of 100%, an inhibition [5] of 100% and an inhibition [6] of 74%. It also gave an inhibition [7] of 100%, an inhibition [8] of 100% and an inhibition [9] of 100%. For the same compound, the inhibition [10] was 100%, the inhibition [11] was 89% and the inhibition [12] was 52%. It also gave an inhibition [13] of 11%, an inhibition [14] of 96% and an inhibition [15] of 100%. For the same compound, the inhibition [16] was 28%.
`O=C(Nc1cccc([C@H]2CCCN(c3ncnc4[nH]ccc34)C2)c1)Nc1ccccc1N1CCCC1` gave an inhibition [17] of 59%, an inhibition [18] of 81% and an inhibition [19] of 3.6%. For the same compound, the inhibition [20] was 0.1%, the inhibition [21] was 100% and the inhibition [22] was 72%. It also gave an inhibition [23] of 50%, an inhibition [24] of 66% and an inhibition [25] of 61%. The inhibition [26] was 14% and the inhibition [27] was 16%.
